Measurements from patent publication US9044474B2, “Compositions and methods for increasing drug efficacy in cancer” (The Ohio State University, priority 2010, dated 2015).

Tests used:
CLL cells [1] = experiment: LC3 confocal immunofluorescence (autophagosome formation) in CLL cells in vitro; type: cell-based, human; settings: CLL patient cells, 4 hours; rapamycin 5 μM, thapsigargin 1 μM, F-ara-A 5 μM, chlorambucil 20 μM, CAL-101 1 μM, rituximab 10 μg/ml, flavopiridol 2 μM, CQ 0.5 μM
Protocol: (§1) After 4 hours exposure to agents, cells were washed in phosphate-buffered saline (PBS) and made adherent on a microscope slide by centrifugation in a Cytospin3 (Shandon) centrifuge. Immediately after cytospin, cells were fixed in cold acetone. […] Nuclei were stained blue with DAPI (Vector Laboratories, Burlingame, Calif.). Images were taken using a 60× objective and 4× digital zoom with Olympus Fluoview 1000 Laser Scanning Confocal microscope at the Ohio State University Campus Microscopy and Imaging Facility. ATF6 antibody was purchased from LifeSpan Biosciences (Seattle, Wash.) and Nrf2 was from Santa Cruz Biotechnology (Santa Cruz, Calif.). Nuclei were evaluated for ATF6 and Nrf2 using confocal microscopy to collect Z stacks, approximately 45 slices per cell, 0.2 μm each.
LC3 intensity and number of dots per cell were both assessed in the fluorescence images. Integrated intensity was measured using Metamorph v.7.0. To calculate the number of “dots” (local extreme point in pixel-intensity profile at which a number of high-intensity pixels form a cluster), a Gaussian filter was first applied to reduce noise. Cells were enumerated electronically by an improved watershed-based algorithm. To quantify co-localization, two binary nuclei images—red (R) and green (G)—are obtained. The correlation value is calculated as the number of white pixels of (R&G) divided by the number of pixels of (RIG), where (R&G) is the intersection of R and G, and (RIG) is the union of R and G. The program used for cell counts and measurement of correlation index is based on MatLab software (Natick, Mass.) and it was developed by members of Department of Biomedical Informatics, The Ohio State University.

CLL cells [2] = experiment: Cell viability by annexin V/PI flow cytometry in CLL cells
Protocol: Percent of live cells was determined by staining with annexin V-fluorescein isothiocyanate and propidium iodide (PI). After exposure to agents, cells were washed with PBS and stained in 1× binding buffer (BD Biosciences, Franklin Lakes, N.J.). Cell viability was assessed by flow cytometry using a Beckman-Coulter Cytomics FC500 cytometer. Data were analyzed with the CXP Cytometer software package (Beckman-Coulter). A total of 10,000 cells were counted for each sample. The cells treated with flavopiridol were washed after 4 hours with PBS and re-suspended in regular growth medium (RPMI 1640) supplemented with 10% human serum and antibiotics for the remainder of the incubation time. […] For all the other conditions, cells were incubated with the respective drugs for 24 hours continuously.
CLL cells were suspended in buffer V (Amaxa kit, Lonza, Allendale, N.J.) and nucleofection was performed using program U016 (5 μg siRNA and 1×10^7 cells per cuvette). Scrambled siRNA and siRNAs to ATG5, ATG7 and ASK1 were purchased from Sigma-Aldrich. Cells were immediately suspended in warm, complete media supplemented with 10% human serum, and RNA was extracted after 36 hours. For CDK1 and CDK5, siRNAs were purchased from Applied Biosystems (Carlsbad, Calif.). Transfections were done using 5 nM siRNA per cuvette, and RNA was harvested at 48 hours.

caspase 4 = experiment: Caspase 4 activity (AFC assay) in CLL cells treated in vitro; type: cell-based, human; settings: Z-YVAD-FMK 20 μM in combination with flavopiridol, thapsigargin or tunicamycin
Protocol: (§2) The presence of active caspase enzymes was determined by the AFC assay. Briefly, lysates containing approximately 3×10^6 cells were incubated with 50 μM LEVD-AFC (caspase 4 substrate) or LETD-AFC (caspase 8 substrate) from MP Biomedicals (Solon, Ohio) in 2× cytobuffer from BioVision (Exton, Pa.) containing 10 mM dithiothretiol (DTT). Caspase 4 activity was measured one hour after addition of substrate and caspase 8 activity was measured 30 minutes after addition of substrate. Release of free AFC was measured with a Beckman-Coulter DTX 880 multimode detector (Filters: excitation, 405/10 nm; emission, 535/25 nm). Caspase 4 inhibitor Z-YVAD-FMK was purchased from R&D Systems.

caspase 8 = experiment: Caspase 8 activity (AFC assay) in CLL cells treated in vitro; type: cell-based, human; settings: Z-YVAD-FMK 20 μM in combination with flavopiridol, thapsigargin or tunicamycin
Protocol: as §2

CLL cells [3] = experiment: LC3-Lamp2 co-localization (autophagosome-lysosome fusion) by confocal microscopy in CLL cells; type: cell-based, human; settings: CLL cells incubated with 5 μM rapamycin (FIG. 9)
Protocol: as §1
LC3 intensity and number of dots per cell were both assessed in the fluorescence images. Integrated intensity was measured using Metamorph v.7.0. To calculate the number of “dots” (local extreme point in pixel-intensity profile at which a number of high-intensity pixels form a cluster), a Gaussian filter was first applied to reduce noise. Cells were enumerated electronically by an improved watershed-based algorithm. To quantify co-localization, two binary nuclei images—red (R) and green (G)—are obtained. […]

XBP1, IRE1, GRP78 = experiment: Real-time RT-PCR of ER stress genes in CLL cells in vitro; type: cell-based, human; settings: CLL cells n=5; flavopiridol 2 μM, thapsigargin 1 μM, tunicamycin 3 μg/ml; CD52 control gene
Protocol: (§3) RNA was extracted using TRIzol reagent (Invitrogen, Carlsbad, Calif.) and purified using QIAGEN RNeasy columns (Qiagen, Valencia, Calif.). cDNA was prepared with SuperScript First-Strand Synthesis System (Invitrogen). Real-time PCR was performed using primers purchased from Applied Biosystems. Detection was performed using an ABI Prism 7700 sequence detection system (Applied Biosystems). Average relative expression (treatment compared with vehicle) was normalized to the internal control gene CD52. Primers to detect spliced XBP1 were designed using Primer 3 software and purchased from IDT. Samples were analyzed on 10% acrylamide gels.

PERK = PERK activity by eIF2α phosphorylation immunoblot in CLL cells; type: cell-based, human
Protocol: (§4) Proteins extracted from whole cell lysates (50 μg/lane) were separated on polyacrylamide gels and transferred on nitrocellulose membrane. Antibodies used for immunoblots included LC3, IRE1α, TRAF2, PI3K III, ATG4C, ATG5-12, UVRAG, Beclin-1 (Cell Signaling, Boston, Mass.), GAPDH, Nrf2, ASK1, ULK1 (Santa Cruz Biotechnology), and Bif-1, ATG14-Barkor (Sigma-Aldrich, St Louis, Mo.). Species-appropriate secondary antibodies were obtained from BioRad Laboratories (Hercules, Calif.). Following antibody incubations, proteins were detected using a chemiluminescent substrate (BioRad Laboratories). For co-immunoprecipitations, TrueBlot beads (eBiosciences, San Diego, Calif.) and One-hour IP Western kit (GenScript, Piscataway, N.J.) were used according to manufacturer protocols. Quantification was done using FluorChem Q (Alpha Innotech, San Leandro Calif.).

Jurkat cell line = experiment: eIF2α phosphorylation immunoblot in cell lines (control); type: cell-based
Protocol: as §4

IRE1 = experiment: XBP1 splicing (IRE1 activity) PCR in CLL cells; type: cell-based, human; settings: for induction of XBP1 splicing: CLL samples
Protocol: as §3

[4] = system: cell lines 293T, RAW and 697, normal B cells; experiment: XBP1 splicing PCR in normal B cells and cell lines; type: cell-based
Protocol: as §3

ATF6 = ATF6 nuclear translocation by confocal fluorescence microscopy in CLL cells; type: cell-based, human; settings: CLL patient cells, flavopiridol 2 μM or thapsigargin 1 μM, 4 hours
Protocol: After 4 hours exposure to agents, cells were washed in phosphate-buffered saline (PBS) and made adherent on a microscope slide by centrifugation in a Cytospin3 (Shandon) centrifuge. Immediately after cytospin, cells were fixed in cold acetone. Next, the cells were incubated in blocking solution (2% bovine serum albumin in PBS) and stained for LC3 (Cell Signaling, Boston, Mass.)) and Lamp2 (Santa Cruz Biotechnology, Santa Cruz, Calif.) by incubating separately with the respective primary antibodies over night, in 4° C., followed by incubation with fluorescent secondary antibodies (Invitrogen, Carlsbad, Calif.): Alexa fluor 594 (red) anti-rabbit for LC3 and Alexa fluor 488 (green) anti-mouse for Lamp2. Nuclei were stained blue with DAPI (Vector Laboratories, Burlingame, Calif.). Images were taken using a 60× objective and 4× digital zoom with Olympus Fluoview 1000 Laser Scanning Confocal microscope at the Ohio State University Campus Microscopy and Imaging Facility. ATF6 antibody was purchased from LifeSpan Biosciences (Seattle, Wash.) and Nrf2 was from Santa Cruz Biotechnology (Santa Cruz, Calif.). Nuclei were evaluated for ATF6 and Nrf2 using confocal microscopy to collect Z stacks, approximately 45 slices per cell, 0.2 μm each.

697 cells = experiment: ChIP assay of ATF6 at GRP78 promoter in 697 cells; type: cell-based; settings: relative to IgG control
Protocol: In brief, cells were treated with 37% formaldehyde to ensure crosslinking of proteins to DNA. Cells were lysed and sonicated to shear the chromatin to fragments of approximately 500 bp. Sheared chromatin was incubated with ATF6 antibody (LifeSpan Biosciences, Seattle, Wash.), followed by precipitation, washing and reversing of the crosslinks Purified DNA was then analyzed by real-time quantitative PCR using primers to the GRP78 promoter region. Primers were designed using Primer 3 software and purchased from IDT (Coralville, Iowa).

JNK1 and p38MAPK = experiment: Immunoblot of phosphorylated JNK1 and p38MAPK in CLL cells in vitro; type: cell-based, human; settings: flavopiridol 2 μM, thapsigargin 1 μM, F-ara-A 5 μM
Protocol: as §4

O=C(O)CCCc1ccc(N(CCCl)CCCl)cc1 [chlorambucil]
LC3 aggregation / LC3 fluorescence (autophagosome formation) versus vehicle (CLL cells [1]): neither chlorambucil nor rituximab produced this effect

rituximab: agent used in CLL, from Genentech
LC3 aggregation / LC3 fluorescence (autophagosome formation) versus vehicle (CLL cells [1]): neither chlorambucil nor rituximab produced this effect

Z-YVAD-FMK
effect on flavopiridol-mediated cell death (CLL cells [2]; CLL cells n=5, Z-YVAD-FMK 20 μM, flavopiridol 2 μM, 24 hours): significantly (P=0.012) reduced
inhibition of agent-induced caspase 4 activity (caspase 4): successfully inhibited
inhibition of agent-induced caspase 8 activity (caspase 8): successfully inhibited

CCN(CC)CCCC(C)Nc1ccnc2cc(Cl)ccc12 (centres unmarked) [chloroquine]
chloroquine concentrations that inhibit autophagosome-lysosome fusion (CLL cells [3]): 0.1 to 0.5 µM

C/C=C(/C)C(=O)O[C@H]1C(C)=C2[C@H]([C@@H]1OC(=O)CCCCCCC)[C@@](C)(OC(C)=O)C[C@H](OC(=O)CCC)[C@@]1(O)[C@H]2OC(=O)[C@@]1(C)O [thapsigargin]
LC3 aggregation / LC3 fluorescence (autophagosome formation) versus vehicle (CLL cells [1]): increase in LC3 aggregation
effect of chloroquine addition on cell death caused by the agent (CLL cells [2]; CLL cells, annexin/PI negative, CQ 0.5 μM, flavopiridol 4 hours then washed, CQ continuous 24 hours): significantly enhanced
effect of ATG5/ATG7 siRNA vs scrambled siRNA on cytotoxicity of the agent (CLL cells [2]; human, 24 h, 1 μM): significantly (P=0.0047) enhanced
expression of ER stress genes XBP1, IRE1 and GRP78 (XBP1, IRE1, GRP78): significant, time-dependent increase in expression of ER stress genes XBP1, IRE1 and GRP78
PERK activity (phosphorylation of eIF2α) (PERK): minimally active
eIF2α phosphorylation (Jurkat cell line): dramatic EIF2α phosphorylation
IRE1 activity (splicing of IRE1 substrate XBP1) (IRE1; CLL cells): no evidence of IRE1 activity
induction of XBP1 splicing (IRE1): neither thapsigargin nor tunicamycin induced XBP1 splicing in any of the samples analyzed
XBP1 splicing [4]: XBP1 splicing is detected
ATF6 nuclear translocation (ATF6): increased nuclear translocation
binding of GRP78 promoter region by ATF6 (697 cells): enhanced binding of the GRP78 promoter region by ATF6
phosphorylation of JNK1 and p38MAPK (JNK1 and p38MAPK): induced the phosphorylation of both JNK1 and p38MAPK

tunicamycin
expression of ER stress genes XBP1, IRE1 and GRP78 (XBP1, IRE1, GRP78): significant, time-dependent increase in expression of ER stress genes XBP1, IRE1 and GRP78
induction of XBP1 splicing (IRE1): neither thapsigargin nor tunicamycin induced XBP1 splicing in any of the samples analyzed
